“And” between values parts separate entries of the source, which are not always exact repeats. Identical values can stand only once. Toxic doses and inconclusive results are not listed.
System: P388 leukemia ip, CD2F1 mice, survival T/C
Experiment: NCI In Vivo Anticancer Drug Screen. Data for tumor model P388 Leukemia (intraperitoneal) in CD2F1 (CDF1) mice
Conditions: endpoint: median survival time, higher = longer survival
Procedure, shortened: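 Mice carrying the transplanted tumor received test compound or vehicle. Survival was recorded in each group, and the value is the treated-group measurement divided by that of the vehicle-treated control group.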

[1] = dose: 25.0 mg/kg/injection, schedule: Q01DX009 (ip), vehicle: saline with Tween-80
[2] = dose: 50.0 mg/kg/injection, schedule: Q01DX009 (ip), vehicle: saline with Tween-80
[3] = dose: 200.0 mg/kg/injection, schedule: Q01DX009 (ip), vehicle: saline with Tween-80
[4] = dose: 50.0 mg/kg/injection, schedule: Q01DX009 (ip), vehicle: saline
[5] = dose: 100.0 mg/kg/injection, schedule: Q01DX009 (ip), vehicle: saline
[6] = dose: 200.0 mg/kg/injection, schedule: Q01DX009 (ip), vehicle: saline
[7] = dose: 50.0 mg/kg/injection, schedule: Q01DX009 (ip), vehicle: Klucel (hydroxypropylcellulose) (HPC)
[8] = dose: 100.0 mg/kg/injection, schedule: Q01DX009 (ip), vehicle: Klucel (hydroxypropylcellulose) (HPC)
[9] = dose: 50.0 mg/kg/injection, schedule: Q01DX005 (ip), vehicle: Klucel (hydroxypropylcellulose) (HPC)
[10] = dose: 100.0 mg/kg/injection, schedule: Q01DX005 (ip), vehicle: Klucel (hydroxypropylcellulose) (HPC)
[11] = dose: 200.0 mg/kg/injection, schedule: Q01DX005 (ip), vehicle: Klucel (hydroxypropylcellulose) (HPC)
[12] = dose: 100.0 mg/kg/injection, schedule: Q04DX003 (ip), vehicle: Klucel (hydroxypropylcellulose) (HPC)
[13] = dose: 200.0 mg/kg/injection, schedule: Q04DX003 (ip), vehicle: Klucel (hydroxypropylcellulose) (HPC)
[14] = dose: 100.0 mg/kg/injection, schedule: Q01DX009 (ip), vehicle: saline with Tween-80

CC(C)Nc1nc(NCC2CC2)nc(ON2C(=O)CCC2=O)n1
T/C (dose: 12.5 mg/kg/injection, schedule: Q01DX009 (ip), vehicle: saline with Tween-80): 100 % of control
T/C [1]: 99 % of control
T/C [2]: 100 % of control and 86 % of control
T/C [3]: 104 % of control

CCCCC[CH2][Ge]([CH2]CCC)([CH2]CCC)[CH]1CCCCC1
T/C [4]: 106 % of control
T/C [5]: 103 % of control
T/C [6]: 95 % of control

COc1ccc(-c2c(O)c3cccnc3[nH]c2=O)cc1
T/C [4]: 102 % of control
T/C [5]: 104 % of control
T/C [6]: 102 % of control

CC(C)(/C=C/c1ccccc1)N=Cc1ccccc1
T/C (dose: 60.0 mg/kg/injection, schedule: Q01DX005 (ip), vehicle: saline with Tween-80): 100 % of control
T/C (dose: 120.0 mg/kg/injection, schedule: Q01DX005 (ip), vehicle: saline with Tween-80): 104 % of control
T/C (dose: 240.0 mg/kg/injection, schedule: Q01DX005 (ip), vehicle: saline with Tween-80): 98 % of control

C(=Nc1ccccc1)C1CCCC[N-]1.C(=Nc1ccccc1)C1CCCC[N-]1.[Cu+2].[O-][Cl+3]([O-])([O-])O (centres undefined)
T/C (dose: 4.5 mg/kg/injection, schedule: Q01DX009 (ip), vehicle: saline with Tween-80): 90 % of control
T/C (dose: 9.0 mg/kg/injection, schedule: Q01DX009 (ip), vehicle: saline with Tween-80): 97 % of control
T/C (dose: 18.0 mg/kg/injection, schedule: Q01DX009 (ip), vehicle: saline with Tween-80): 97 % of control
T/C (dose: 18.75 mg/kg/injection, schedule: Q01DX009 (ip), vehicle: saline with Tween-80): 97 % of control
T/C [2]: 96 % of control

Nc1ccn(C2OC(COP(=O)(O)O)C(O)C2O)c(=O)n1 (centres undefined) (tested in a mixture with another compound)
T/C (dose: 60.0 mg/kg/injection, schedule: Q01DX005 (ip), vehicle: Klucel (hydroxypropylcellulose) (HPC)): 108 % of control
T/C (dose: 120.0 mg/kg/injection, schedule: Q01DX005 (ip), vehicle: Klucel (hydroxypropylcellulose) (HPC)): 99 % of control
T/C (dose: 240.0 mg/kg/injection, schedule: Q01DX005 (ip), vehicle: Klucel (hydroxypropylcellulose) (HPC)): 99 % of control

O=C(CBr)Nc1ccc(Cc2ccc(NC(=O)CBr)cc2)cc1
T/C (dose: 100.0 mg/kg/injection, schedule: Q01DX001 (ip), vehicle: saline with Tween-80): 99 % of control
T/C (dose: 200.0 mg/kg/injection, schedule: Q01DX001 (ip), vehicle: saline with Tween-80): 93 % of control
T/C (dose: 400.0 mg/kg/injection, schedule: Q01DX001 (ip), vehicle: saline with Tween-80): 94 % of control

COc1ccc2c(=O)c(Cc3c[nH]c4ccccc34)coc2c1
T/C (dose: 7.5 mg/kg/injection, schedule: Q01DX005 (ip), vehicle: saline with Tween-80): 100 % of control
T/C (dose: 15.0 mg/kg/injection, schedule: Q01DX005 (ip), vehicle: saline with Tween-80): 93 % of control
T/C (dose: 30.0 mg/kg/injection, schedule: Q01DX005 (ip), vehicle: saline with Tween-80): 86 % of control

C[CH2][Sn]([CH2]C)([n]1c(C)nc2ccccc21)[n]1c(C)nc2ccccc21
T/C (dose: 1.56 mg/kg/injection, schedule: Q01DX005 (ip), vehicle: Klucel (hydroxypropylcellulose) (HPC)): 110 % of control
T/C (dose: 3.12 mg/kg/injection, schedule: Q01DX005 (ip), vehicle: Klucel (hydroxypropylcellulose) (HPC)): 122 % of control
T/C (dose: 6.25 mg/kg/injection, schedule: Q01DX005 (ip), vehicle: Klucel (hydroxypropylcellulose) (HPC)): 122 % of control

Cc1c(O)/c(=C\O)c2nc3c(=O)ccc(C(=O)NCCN(C)C)c3[nH]c2c1=O
T/C (dose: 6.25 mg/kg/injection, schedule: Q01DX005 (ip), vehicle: other): 117 % of control
T/C (dose: 7.5 mg/kg/injection, schedule: Q03HX015 (ip), vehicle: water): 160 % of control
T/C (dose: 12.5 mg/kg/injection, schedule: Q01DX005 (ip), vehicle: other): 120 % of control
T/C (dose: 15.0 mg/kg/injection, schedule: Q03HX015 (ip), vehicle: water): 177 % of control
T/C (dose: 50.0 mg/kg/injection, schedule: Q01DX005 (ip), vehicle: other): 123 % of control

CCC(O)CN(C)Cc1cc2c(c3ccccc13)CCCC2 (centres undefined)
T/C [4]: 106 % of control
T/C [5]: 108 % of control

COc1cc(C2=NCCc3cc4c(cc32)OCO4)cc(OC)c1OC
T/C (dose: 50.0 mg/kg/injection, schedule: Q01DX005 (ip), vehicle: saline): 100 % of control and 101 % of control
T/C (dose: 100.0 mg/kg/injection, schedule: Q01DX005 (ip), vehicle: saline): 105 % of control and 118 % of control
T/C (dose: 200.0 mg/kg/injection, schedule: Q01DX005 (ip), vehicle: saline): 152 % of control

CC(=O)c1cc(C(=O)O)c(O)c2ccccc12
T/C [7]: 90 % of control
T/C [8]: 92 % of control

CN(C)CCC(CCc1ccccc1)OC(=O)c1ccccc1 (centres undefined)
T/C (dose: 25.0 mg/kg/injection, schedule: Q01DX009 (ip), vehicle: saline): 102 % of control
T/C [4]: 101 % of control
T/C [5]: 102 % of control

CC(C)[C@H](N)C(=O)NCCNC(=O)[C@@H](N)C(C)C
T/C (dose: 60.0 mg/kg/injection, schedule: Q01DX005 (ip), vehicle: saline): 91 % of control
T/C (dose: 120.0 mg/kg/injection, schedule: Q01DX005 (ip), vehicle: saline): 98 % of control

CCC(=O)n1c(Cl)c(C=O)c2ccccc21
T/C (dose: 100.0 mg/kg/injection, schedule: Q01DX001 (ip), vehicle: Klucel (hydroxypropylcellulose) (HPC)): 99 % of control
T/C (dose: 200.0 mg/kg/injection, schedule: Q01DX001 (ip), vehicle: Klucel (hydroxypropylcellulose) (HPC)): 102 % of control
T/C (dose: 400.0 mg/kg/injection, schedule: Q01DX001 (ip), vehicle: Klucel (hydroxypropylcellulose) (HPC)): 94 % of control

C/C(N)=C(\C#N)C(=O)c1ccccc1
T/C [9]: 100 % of control
T/C [10]: 103 % of control
T/C [11]: 111 % of control

COc1cc2c3c(cccc3c1)C(=O)N(CCN1CCCC1)C2=O
T/C (dose: 17.3 mg/kg/injection, schedule: Q01DX009 (ip), vehicle: saline with Tween-80): 112 % of control
T/C (dose: 34.7 mg/kg/injection, schedule: Q01DX009 (ip), vehicle: saline with Tween-80): 116 % of control
T/C (dose: 50.0 mg/kg/injection, schedule: Q04DX003 (ip), vehicle: Klucel (hydroxypropylcellulose) (HPC)): 100 % of control
T/C (dose: 69.3 mg/kg/injection, schedule: Q01DX009 (ip), vehicle: saline with Tween-80): 116 % of control
T/C [12]: 101 % of control
T/C [13]: 100 % of control

O=C(Nc1ccccc1-c1ccccc1)c1ccc2c(c1)OCO2
T/C (dose: 50.0 mg/kg/injection, schedule: Q01DX005 (ip), vehicle: saline with Tween-80): 97 % of control
T/C (dose: 100.0 mg/kg/injection, schedule: Q01DX005 (ip), vehicle: saline with Tween-80): 111 % of control
T/C (dose: 200.0 mg/kg/injection, schedule: Q01DX005 (ip), vehicle: saline with Tween-80): 97 % of control

CN1CCC(CNc2ccccc2)CC1
T/C (dose: 7.5 mg/kg/injection, schedule: Q01DX005 (ip), vehicle: saline): 98 % of control
T/C (dose: 15.0 mg/kg/injection, schedule: Q01DX005 (ip), vehicle: saline): 98 % of control

CN(C)c1ccc(C(=O)C2CCCC(C)(C)C2)cc1 (centres undefined)
T/C [12]: 98 % of control
T/C [13]: 99 % of control
T/C (dose: 400.0 mg/kg/injection, schedule: Q04DX003 (ip), vehicle: Klucel (hydroxypropylcellulose) (HPC)): 91 % of control

c1ccc2c3cc(cc2c1)OCCOCCOCCOCCOCCOc1ccc2ccccc2c1-3
T/C [2]: 101 % of control
T/C [14]: 101 % of control
T/C [3]: 103 % of control

CSc1nc(N)c(C(=O)Nc2ccc([N+](=O)[O-])cc2)s1
T/C [7]: 99 % of control
T/C [8]: 99 % of control
T/C (dose: 200.0 mg/kg/injection, schedule: Q01DX009 (ip), vehicle: Klucel (hydroxypropylcellulose) (HPC)): 100 % of control

Cc1nc(Nc2ccccc2)c2c(-c3ccccc3)c[nH]c2n1
T/C [9]: 89 % of control
T/C [10]: 90 % of control
T/C [11]: 100 % of control

ClC1=C(Cl)C(Cl)=C(Cl)C1=C/C=C/c1ccccc1
T/C [1]: 99 % of control
T/C [2]: 100 % of control
T/C [14]: 91 % of control

CC(=O)NC1CC(=O)N(c2ccc(Cl)cc2)C1=O (centres undefined)
T/C [7]: 96 % of control
T/C [8]: 96 % of control
T/C [12]: 102 % of control
T/C [13]: 101 % of control

O=c1cc2[nH]c3ccccc3c(=O)n2[nH]1
T/C [9]: 98 % of control
T/C [10]: 97 % of control
T/C [11]: 95 % of control

CCOC(=O)c1nc(Cl)cn(O)c1=N
T/C [14]: 104 % of control
T/C [3]: 99 % of control
T/C (dose: 400.0 mg/kg/injection, schedule: Q01DX009 (ip), vehicle: saline with Tween-80): 93 % of control
